Results: patent US8263606B2 (Xenon Pharmaceuticals Inc., priority 2008, dated 2012)

Key:
sodium channel = experiment: Guanidine influx assay (14C-guanidine radiotracer flux, in vitro); assay type: cell-based, human or rat; conditions: guanidine influx assay using a known cell line that expresses a sodium channel
In short: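 Test agents at half-step dilutions around 1 μM are added to plated cells in low-sodium HEPES buffer, then an aconitine/14C-guanidine mixture; after ambient-temperature incubation, cells are washed and counted. IC50 comes from a sigmoidal fit.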

CYP3A4 = CYP3A4 (Homo sapiens, UniProt P08684); experiment: Cytochrome P450 (CYP450) Inhibition Assay, CYP3A4 (Vivid fluorescence, BOMCC substrate); conditions: human, P450 Baculosomes (recombinant CYP3A4), probe BOMCC (Vivid substrate)
Chain of CYP3A4 (P08684 whole entry): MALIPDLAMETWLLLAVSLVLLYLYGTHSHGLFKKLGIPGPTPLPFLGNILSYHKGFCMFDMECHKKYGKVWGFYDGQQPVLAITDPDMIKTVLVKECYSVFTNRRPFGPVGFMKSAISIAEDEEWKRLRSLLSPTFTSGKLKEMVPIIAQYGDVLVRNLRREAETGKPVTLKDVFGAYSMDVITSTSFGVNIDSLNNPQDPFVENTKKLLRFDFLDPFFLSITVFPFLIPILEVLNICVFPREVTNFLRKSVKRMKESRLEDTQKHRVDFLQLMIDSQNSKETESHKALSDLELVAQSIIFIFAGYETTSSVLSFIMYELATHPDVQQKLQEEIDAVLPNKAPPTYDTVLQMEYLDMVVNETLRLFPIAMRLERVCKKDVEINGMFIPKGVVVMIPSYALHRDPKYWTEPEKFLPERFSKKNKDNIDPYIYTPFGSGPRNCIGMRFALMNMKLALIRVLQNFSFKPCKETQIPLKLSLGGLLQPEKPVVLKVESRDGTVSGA

IC50 (sodium channel; activity level class) [nM]	inhibition at 10 µM (CYP3A4) [%]	IC50 (sodium channel) [nM]	Structure (SMILES)
1 to 100	< 50	–	COc1ccc2c(c1)OCC21C(=O)N(CC2CCCCO2)c2ccccc21 (centres unmarked) [Example 9.36, 6-methoxy-1′-(tetrahydro-2H-pyran-2-ylmethyl)spiro[1-benzofuran-3,3′-indol]-2′(1′H)-one]
1000 to 10000	> 50	–	N#Cc1cc2c(cc1F)OCC21C(=O)N(Cc2ccccc2C(F)(F)F)c2ccccc21 (centres unmarked) [Example 9.50, 6-fluoro-2′-oxo-1′-[2-(trifluoromethyl)benzyl]-1′,2′-dihydrospiro[1-benzofuran-3,3′-indole]-5-carbonitrile]
–	< 50	100 to 1000	COCCOCCN1C(=O)C2(COc3cc4onc(C)c4cc32)c2ccccc21 (centres unmarked) [Example 9.54, 1′-[2-(2-methoxyethoxy)ethyl]-3-methylspiro[furo[3,2-f][1,2]benzisoxazole-5,3′-indol]-2′(1′H)-one]
–	< 50	100 to 1000	O=C1N(Cc2ccccn2)c2ccccc2C12COc1cc(F)c(F)cc12 (centres unmarked) [Example 9.64, 5,6-difluoro-1′-(pyridin-2-ylmethyl)spiro[1-benzofuran-3,3′-indol]-2′(1′H)-one]
–	< 50	1000 to 10000	O=C1N(CC2CCOCC2)c2ccccc2C12COc1cc(F)c(F)cc12 (centres unmarked) [Example 9.65, 5,6-difluoro-1′-(tetrahydro-2H-pyran-4-ylmethyl)spiro[1-benzofuran-3,3′-indol]-2′(1′H)-one]
–	< 50	1 to 100	COCCOCCN1C(=O)[C@@]2(COc3cc4c(cc32)OCCO4)c2ccccc21 [Example 9.70, (8S)-1′-[2-(2-methoxyethoxy)ethyl]-2,3-dihydrospiro[furo[2,3-g][1,4]benzodioxine-8,3′-indol]-2′(1′H)-one]
–	< 50	100 to 1000	COCCOCCN1C(=O)C2(COc3cc(OCCOC)ccc32)c2ccccc21 (centres unmarked) [Example 9.75, 6-(2-methoxyethoxy)-1′-[2-(2-methoxyethoxy)ethyl]spiro[1-benzofuran-3,3′-indol]-2′(1′H)-one]
–	< 50	100 to 1000	COCCOCCN1C(=O)C2(COc3ccc(OCCOC)cc32)c2ccccc21 (centres unmarked) [Example 9.76, 5-(2-methoxyethoxy)-1′-[2-(2-methoxyethoxy)ethyl]spiro[1-benzofuran-3,3′-indol]-2′(1′H)-one]
–	> 50	1 to 100	O=C1N(Cc2cnc(Cl)s2)c2ccccc2C12COc1cc3c(cc12)OCO3 (centres unmarked) [Example 11, 1′-[(2-chloro-1,3-thiazol-5-yl)methyl]spiro[furo[2,3-f][1,3]benzodioxole-7,3′-indol]-2′(1′H)-one]
–	< 50	1000 to 10000	O=C1N(CC2CCNCC2)c2ccccc2C12COc1cc3c(cc12)CCO3 (centres unmarked) [Example 11.5, 1-(piperidin-4-ylmethyl)-5,6-dihydrospiro[benzo[1,2-b:5,4-b′]difuran-3,3′-indol]-2′(1′H)-one]
–	> 50	1000 to 10000	CC(C)N1CCC(CN2C(=O)C3(COc4cc5c(cc43)CCO5)c3ccccc32)CC1 (centres unmarked) [Example 11.6, 1′-{[1-(1-methylethyl)piperidin-4-yl]methyl}-5,6-dihydrospiro[benzo[1,2-b:5,4-b′]difuran-3,3′-indol]-2′(1′H)-one]
–	> 50	1000 to 10000	CCN1CCC(CN2C(=O)C3(COc4cc5c(cc43)CCO5)c3ccccc32)CC1 (centres unmarked) [Example 11.8, 1-[(1-ethylpiperidin-4-yl)methyl]-5,6-dihydrospiro[benzo[1,2-b:5,4-b′]difuran-3,3′-indol]-2′(1′H)-one]
–	> 50	100 to 1000	O=C1N(Cc2ccc(-c3ccncc3)o2)c2ccccc2C12COc1cc3c(cc12)CCO3 (centres unmarked) [Example 11.15, 1′-[(5-pyridin-4-ylfuran-2-yl)methyl]-5,6-dihydrospiro[benzo[1,2-b:5,4-b′]difuran-3,3′-indol]-2′(1′H)-one]
